Source: article PMC12199309, “Isolation, structural elucidation, and integrated biological and computational evaluation of antidiabetic labdane diterpenes from Curcuma zedoaria rhizomes” (RSC Advances, 2025)
Where two headings read alike, the source gives them in different places.

Tests used:
[1] = target: T1, α-Glucosidase (EC 3.2.1.20) (Saccharomyces cerevisiae, UniProt P53341); experiment: biochemical; conditions: for inhibition at 10 µM / inhibition at 25 µM / inhibition at 50 µM / inhibition at 100 µM / inhibition at 1 µM / inhibition at 2.5 µM / inhibition at 5 µM: read-out: Inhibition rate (%)
T1 construct: purchased Sigma Chemical Co. (St. Louis, MO, USA)
Protocol: Five isolated compounds were examined to assess their inhibitory effect on α-glucosidase at concentrations ranging from 1 to 100 μM. […]
Optical values were conducted on a Shimadzu UV-1800 spectrophotometer (Shimadzu Pte., Ltd, Singapore). IR spectra were measured with a Shimadzu IR-408 infrared spectrometer (Shimadzu Pte., Ltd, Singapore). NMR spectra were acquired on a Bruker Avance III 500 spectrometer Bruker BioSpin AG, Bangkok, (Thailand), with chemical shifts (δ) referenced to deuterated solvents. HR-ESI-MS data were obtained on Bruker micrOTOFQII mass spectrometer (Bruker Singapore Pte., Ltd, Singapore). Column chromatography utilized silica gel 60 (0.06–0.2 mm; Scharlau, Barcelona, Spain) and LiChroprep RP-18 (40–63 μm; Merck KGaA, Darmstadt, Germany). Thin-layer chromatography (TLC) employed Kieselgel 60 F254 or RP-18 F254 plates from Merck KGaA (Darmstadt, Germany). α-Glucosidase (EC 3.2.1.20), derived from Saccharomyces cerevisiae (750 UN), along with p-nitrophenyl-α-D-glucopyranoside, was procured from Sigma Chemical Co. (St. Louis, MO, USA). […] All other chemicals and solvents were of the highest purity or analytical grade.
The inhibitory activity of α-glucosidase was assessed using a modified method based on Kurihara et al.[37] The reaction was initiated by adding 50 μL of 1.5 mM p-nitrophenyl-α-D-glucopyranoside and 50 μL of 0.1 U mL^−1 α-glucosidase in 0.01 M phosphate buffer (pH 7.0) to 625 μL of sample solution. The reaction was conducted at 37 °C for 30 minutes and terminated with 0.1 M Na2CO3. Enzymatic activity was quantified by measuring absorbance at a wavelength of 401 nm. One unit of α-glucosidase activity was defined as the amount of enzyme that liberates […] p-nitrophenol per minute. The IC50 value represented the inhibitor concentration that suppressed 50% of enzyme activity.

[2] = target: T1, α-Glucosidase (EC 3.2.1.20); experiment: biochemical; conditions: read-out: Inhibition rate (%)
[3] = α-glucosidase inhibition, 37 °C, 30 minutes, pH 7.0, read-out: IC50

T1 sequence (P53341 whole entry): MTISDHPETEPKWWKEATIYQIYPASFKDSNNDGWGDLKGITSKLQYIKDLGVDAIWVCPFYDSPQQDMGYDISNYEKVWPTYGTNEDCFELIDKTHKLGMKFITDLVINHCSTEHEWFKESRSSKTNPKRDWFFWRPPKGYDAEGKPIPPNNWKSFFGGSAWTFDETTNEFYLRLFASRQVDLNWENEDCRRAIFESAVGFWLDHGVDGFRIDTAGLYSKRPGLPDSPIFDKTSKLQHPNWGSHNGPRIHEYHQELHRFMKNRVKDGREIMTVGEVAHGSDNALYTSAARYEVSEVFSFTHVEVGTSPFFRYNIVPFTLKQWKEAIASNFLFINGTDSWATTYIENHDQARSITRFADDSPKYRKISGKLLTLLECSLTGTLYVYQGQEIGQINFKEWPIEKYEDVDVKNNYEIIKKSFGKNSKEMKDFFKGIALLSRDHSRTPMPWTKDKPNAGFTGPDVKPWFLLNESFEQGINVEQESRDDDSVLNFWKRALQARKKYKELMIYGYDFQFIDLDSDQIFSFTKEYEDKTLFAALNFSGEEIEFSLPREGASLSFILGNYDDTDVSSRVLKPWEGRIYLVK

| Compound | IC50 [1] [µM] | inhibition at 10 µM [1] [%] | inhibition at 25 µM [1] [%] | inhibition at 50 µM [1] [%] | inhibition at 100 µM [1] [%] | inhibition at 1 µM [1] [%] | inhibition at 2.5 µM [1] [%] | inhibition at 5 µM [1] [%] | IC50 [1, 3] [µM] | inhibition at 250 µM [2] [%] |
| --- | --- | --- | --- | --- | --- | --- | --- | --- | --- | --- |
| C=C1CCC2C(C)(C)CCCC2(C)C1CC=C(COC(C)=O)C(=O)O (centres unmarked) [CZ1, zedolabdin A] | 14.1 | 29.5 ± 1.8 | 81.4 ± 0.5 | 96.2 ± 0.4 | 98.8 ± 0.4 |  |  |  |  |  |
| C=C1CCC2C(C)(C)CCCC2(C)C1CC=C(CO)C(=O)O (centres unmarked) [CZ2, (E)-14-hydroxy-15-norlabda-8(17),12-dien-16-oic acid] | 25.5 | 24.6 ± 4.1 | 46.3 ± 3.1 | 72.4 ± 2 | 99.1 ± 2 |  |  |  |  |  |
| C=C1CC[C@H]2C(C)(C)CCC[C@]2(C)[C@H]1/C=C/C1=C(O)COC1=O [CZ3, zerumin] |  | 73.4 ± 2.3 |  |  |  | 6.9 ± 4 | 20.8 ± 3.6 | 35.2 ± 1.9 | 6.2 |  |
| C=C1CC[C@H]2C(C)(C)CCC[C@]2(C)[C@H]1CCC1=CC(O)OC1=O (some centres unmarked) [CZ4, coronarin C] |  | 95.4 ± 1.5 |  |  |  | 13.7 ± 5.4 | 34 ± 0.9 | 81 ± 1.7 | 3 |  |
| C=C1CCC2C(C)(C)CCCC2(C)C1C=CC(=O)O (centres unmarked) [CZ5, (E)-14,15,16-trinorlabda-8(17),11-dien-13-oic acid] | 37.6 | 3.5 ± 3.6 | 16.6 ± 3.8 | 75.8 ± 4.4 | 99.8 ± 0.2 |  |  |  |  |  |
| C[C@H]1O[C@H](O[C@H]2[C@H](O)[C@@H](O)[C@@H](O[C@H]3[C@H](O)[C@@H](O)C(O)O[C@@H]3CO)O[C@@H]2CO)[C@H](O)[C@@H](O)[C@@H]1N[C@H]1C=C(CO)[C@@H](O)[C@H](O)[C@H]1O (some centres unmarked) [PC, acarbose, reference compound] |  |  | 8.6 ± 1.1 | 19.7 ± 1.3 | 32.1 ± 1.7 |  |  |  |  | 66 ± 1.2 |
